Marks after values point to notes of the source that are not given here.
Columns and labels:
[1] = tested on: patient-derived xenograft (PDX) triple negative breast cancer (TNBC) tumor, BR1282; assay: First PDX study, efficacy; assay type: in vivo, BALB/c nude mice; details: for Efficacy: ΔT/C Day 16: mean change in tumor volume on day 16; for Efficacy: ΔT/C Day −0 up to Day 42: mean rate of growth (k), exponential curve fits, day 0 to culling day or day 42; for Cures Day 97: no tumors detectable by H&E staining of skin on day 97, N=8 mice/group
Procedure: (§1) The compound of formula (I) was supplied as a powder by Basilea Pharmaceutica International Ltd. and was prepared freshly as a solution in Ethanol: PEG400:Citric acid 20 mM, at a ratio of 1:1:8, for immediate administration.
(§2) The statistical significance of efficacy were determined in two different ways using a) the endpoint on day 16 or day 13 depending on the study when it was necessary to cull the vehicle group because of tumor volume exceeding 1500 mm3, and b) at the endpoint of day 42 or day 51 depending on the study (one week after the final treatment) when exponential curve fits were applied to estimate the rates of tumor growth in the different groups. Finally, the number of complete cures was compared across the groups following confirmation by histopathology within the first study. The degree of an effect was quantified by the delta (Δ) treated/control ratio (ΔT/C) and the statistical significance of the effect was determined by a one-way analysis of variance (1W-ANOVA) with Holms-Sidak applied post-hoc for multiple determinations, where a p-value of <0.05 was considered statistically significant. In addition, an assessment of synergy was made based upon the Clarkes Combination Index (CCI), where the CCI=ΔT/CAB−(ΔT/CA*ΔT/CB) in which A and B are two different compounds, where CCI<−0.1 indicates synergy (or a positive interaction), +0.1 (antagonism, or a negative interaction) and between −0.1 and +0.1 indicates additivity (no interaction); see O'Reilly et al. Anti Cancer Drugs 2011; 22:58-78.

[2] = for Tolerability (Day 16) ΔBW (%) / Tolerability (Day 16) ΔT/C: mouse, in vivo
Procedure: In a first PDX study female BALB/c nude mice (CrownBio) of at least 20 g body weight were subcutaneously (s.c.) inoculated in the right flank with tumor fragments (3*3*3 mm) from stock mice bearing the patient-derived xenograft (PDX) triple negative breast cancer (TNBC) tumor, BR1282. Randomization into 5 different treatment groups (8 mice per group) was made when the mean tumor size was 150-200 mm3. […] The fifth group received both vehicles using the time interval of 4 h and all groups were dosed twice via the tail vein. Dosing was delayed by 1 day in any mice showing transient body weight loss of ≥ 10% at any time point.
(§3) Body weights and tumor volumes were determined at least twice per week, the latter by measuring two dimensions with calipers and applying the formula “V=(L×W2)/2”, where V is the tumor volume, and L and W are the tumor length and width respectively. […] Mice were also culled if the BWL was determined to be >15% for 3 consecutive days. Any mice with >10% BWL, automatically were dosed on one of the following days, as soon as the BWL returned to <10%. All animal protocols were reviewed and approved by the relevant local committees in China, where the studies were performed.

TNBC BR1282 PDX model = assay: Second PDX study, efficacy; assay type: in vivo, BALB/c nude mice; details: for Efficacy: ΔT/C Day 13: mean change in tumor volume on day 13; for Efficacy: ΔT/C Day 0 up to day 51: mean rate of growth (k), day 0 to culling day or day 51; for Cures By day 148: no tumors detectable by pathological confirmation at end of observation period, 8 mice per group
Procedure: as §1, §2

[3] = mouse, in vivo
Procedure: Dosing was delayed by 1 day in any mice showing transient body weight loss of ≥ 10% at any time point.
as §3

TTK [4] = biological target: T1, TTK (Homo sapiens, UniProt P33981); assay: Radiometric protein kinase assay (33PanQinase Activity Assay), TTK; assay type: biochemical; details: radiometric 33PanQinase assay; ATP 0.3 mM
T1 construct: TTK and PLK1 protein kinases were expressed as recombinant full-length GST-fusion proteins; GST
T1 sequence (P33981 1-857): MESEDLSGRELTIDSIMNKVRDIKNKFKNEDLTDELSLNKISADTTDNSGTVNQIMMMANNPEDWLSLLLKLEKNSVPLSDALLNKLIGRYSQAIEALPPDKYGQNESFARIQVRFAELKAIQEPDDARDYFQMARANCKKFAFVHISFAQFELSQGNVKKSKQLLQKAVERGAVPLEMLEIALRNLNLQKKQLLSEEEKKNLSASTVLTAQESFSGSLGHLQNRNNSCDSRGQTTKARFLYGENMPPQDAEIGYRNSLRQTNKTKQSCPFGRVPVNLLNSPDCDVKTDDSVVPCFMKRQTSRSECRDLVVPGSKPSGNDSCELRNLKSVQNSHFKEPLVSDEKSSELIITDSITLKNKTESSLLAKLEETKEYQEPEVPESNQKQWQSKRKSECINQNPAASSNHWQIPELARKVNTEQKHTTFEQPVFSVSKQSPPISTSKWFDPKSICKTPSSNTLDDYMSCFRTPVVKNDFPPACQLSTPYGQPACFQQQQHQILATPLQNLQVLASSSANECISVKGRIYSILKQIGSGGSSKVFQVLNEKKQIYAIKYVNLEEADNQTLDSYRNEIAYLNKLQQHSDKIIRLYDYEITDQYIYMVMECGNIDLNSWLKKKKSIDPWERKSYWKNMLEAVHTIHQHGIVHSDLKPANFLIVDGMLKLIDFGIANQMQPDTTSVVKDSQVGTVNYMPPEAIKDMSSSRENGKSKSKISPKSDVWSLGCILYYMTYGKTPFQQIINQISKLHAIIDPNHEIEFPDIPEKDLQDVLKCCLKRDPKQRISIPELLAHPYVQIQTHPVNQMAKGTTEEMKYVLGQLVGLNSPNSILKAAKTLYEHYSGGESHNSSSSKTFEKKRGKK
Procedure: (§4) A radiometric protein kinase assay (33PanQinase® Activity Assay) was used for measuring the kinase activity of TTK and PLK1. TTK and PLK1 protein kinases were expressed as recombinant full-length GST-fusion proteins. The reaction cocktail contained […] of enzyme/substrate mixture. The assay for the protein kinases contained 70 mM HEPES-NaOH pH 7.5, 3 mM MgCl2, 3 mM MnCl2, 3 mM Na-orthovanadate, 1.2 mM DTT, […] PEG20000, ATP (0.3 mM for TTK and 1 mM for PLK1), [γ-33P]-ATP (approx. 8×10^5 cpm per well), protein kinase (15.8 nM for TTK and 5 nM for PLK1), and substrate (1 mg/50 mL for TTK and 2 mg/50 mL for PLK1). All assays were performed with a Beckman-Coulter/SAGIAN™ Core System. The fitting model for the IC50 determinations was “Sigmoidal response (variable slope)” with parameters “top” fixed at 100% and “bottom” at 0%. The fitting method used was a least squares fit.

PLK1 [5] = biological target: T2, PLK1 (Homo sapiens, UniProt P53350); assay: Radiometric protein kinase assay (33PanQinase Activity Assay), PLK1; assay type: biochemical; details: radiometric 33PanQinase assay; ATP 1 mM
T2 sequence (P53350 whole entry): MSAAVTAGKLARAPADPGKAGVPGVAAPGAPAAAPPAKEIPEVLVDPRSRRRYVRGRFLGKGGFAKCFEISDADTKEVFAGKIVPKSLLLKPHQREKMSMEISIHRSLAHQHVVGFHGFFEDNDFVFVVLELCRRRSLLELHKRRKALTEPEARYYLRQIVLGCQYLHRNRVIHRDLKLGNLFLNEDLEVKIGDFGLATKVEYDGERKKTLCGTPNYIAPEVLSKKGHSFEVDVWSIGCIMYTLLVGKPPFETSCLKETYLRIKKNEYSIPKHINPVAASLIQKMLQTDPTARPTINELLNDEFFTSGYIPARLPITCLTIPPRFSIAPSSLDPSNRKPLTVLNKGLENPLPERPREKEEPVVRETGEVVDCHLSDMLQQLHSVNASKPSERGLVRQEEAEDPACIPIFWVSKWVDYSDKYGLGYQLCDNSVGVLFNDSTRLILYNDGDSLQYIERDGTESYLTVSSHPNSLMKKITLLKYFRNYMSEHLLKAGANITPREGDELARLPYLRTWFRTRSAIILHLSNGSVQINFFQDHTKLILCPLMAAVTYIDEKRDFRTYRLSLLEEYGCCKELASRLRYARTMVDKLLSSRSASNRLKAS
Procedure: as §4

TTK [6] = biological target: T1, TTK; assay: TTK kinase assay as described in WO 2015/155042; assay type: biochemical; details: when measured as described in WO 2015/155042
PLK1 [7] = biological target: T2, PLK1; assay: PLK1 kinase assay as described in WO 2015/155042; assay type: biochemical; details: when measured as described in WO 2015/155042
other kinase = assay: Kinase specificity, other kinases versus TTK; assay type: biochemical
[8] = biological target: T3, TTK kinase domain (amino acids 519-808) (Homo sapiens, UniProt P33981); assay: Target residence time assay (Biacore T200 surface plasmon resonance), TTK; assay type: binding; details: SPR, 22° C.
T3 construct: recombinant expressed TTK kinase domain (amino acids 519-808)
T3 sequence (P33981 519-808): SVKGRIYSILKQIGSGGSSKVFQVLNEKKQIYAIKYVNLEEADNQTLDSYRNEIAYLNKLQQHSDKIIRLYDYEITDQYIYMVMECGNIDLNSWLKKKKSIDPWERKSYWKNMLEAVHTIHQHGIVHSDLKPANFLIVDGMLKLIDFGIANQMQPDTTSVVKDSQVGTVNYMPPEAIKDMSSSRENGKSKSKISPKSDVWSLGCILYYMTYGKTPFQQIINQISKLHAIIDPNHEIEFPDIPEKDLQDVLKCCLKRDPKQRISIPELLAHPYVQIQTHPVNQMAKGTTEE
Procedure: (§5) The affinity, i.e. the equilibrium dissociation constant (KD) (referred to as residence times), of the compound of formula (I) against TTK and PLK1 were determined using a Biacore T200™ surface plasmon resonance instrument using recombinant expressed TTK kinase domain (amino acids 519-808) or biotinylated PLK1. The immobilization of TTK was performed as described in Maia et al. Annals of Oncology, 2015; 26:2180-2192. The immobilization of biotinylated PLK1 was performed as described in Willemsen-Seegers et al. Journal of Molecular Biology, 2017; 429:574-586. The subsequent single cycle kinetic assays were performed at 22° C. using a compound concentration gradient of 1, 3.6, 10, 31.6 and 100 nM for TTK and 10, 31.6, 100, 316 and 1000 nM for PLK1, a contact time of 100 s and a flow rate of […]. The dissociation period was 1200-1800 s and a correction for an unstable surface using a blank run with buffer was performed.

biotinylated PLK1 = biological target: T4, biotinylated PLK1 (Homo sapiens, UniProt P53350); assay: Target residence time assay (Biacore T200 surface plasmon resonance), PLK1; assay type: binding; details: SPR, 22° C.
T4 construct: biotin (biotinylated)
T4 sequence (P53350 whole entry): as the sequence (P53350 whole entry) above
Procedure: as §5

tumor-derived TTK = biological target: T5, tumor-derived TTK (Homo sapiens, UniProt P33981); assay: Tumor TTK target occupancy in MDA-MB-231 xenograft-bearing mice; assay type: in vivo
T5 construct: from tissue; host or cells: MDA-MB-231 xenograft tumours from mice
T5 sequence (P33981 1-857): T1 sequence (P33981 1-857)
Procedure: Prolonged TTK target occupancy was also measured in tumors derived from MDAMB-231 xenograft-bearing mice treated with intermittent i.v. dosing regimen of compound of formula (I). […]

[9] = tested on: triple negative breast cancer cell lines; assay: 5-day anti-proliferative screen of 18 triple negative breast cancer cell lines; assay type: cell-based; details: 120 h, 18 different triple negative breast cancer cell lines, read-out: median GI50
Description: (§6) In cellular systems, the compound of formula (I) has high potency against sensitive cells.

[10] = tested on: patient-derived tumor xenografts, including TNBC and hepatocellular cancer (HCC) models; assay: Patient-derived tumor xenografts in mice (data not shown); assay type: in vivo
Description: as §6

[11] = Single-dose pharmacokinetic drug-drug interaction experiment; assay type: in vivo; details: 8 mg/kg i.v., 1 h after paclitaxel (15 mg/kg, i.v.); non tumor-bearing mice

Compound | Efficacy: ΔT/C Day 16 [1] | Efficacy: ΔT/C Day −0 up to Day 42 [1] | Cures Day 97 [1] | Tolerability (Day 16) ΔBW (%) [2] | Tolerability (Day 16) ΔT/C [2] | Efficacy: ΔT/C Day 13 (TNBC BR1282 PDX model) | Efficacy: ΔT/C Day 0 up to day 51 (TNBC BR1282 PDX model) | Cures By day 148 (TNBC BR1282 PDX model) | Tolerability (Day 13) ΔBW (%) [3] | Tolerability (Day 13) ΔT/C [3] | also measured
CC(=O)O[C@H]1C(=O)[C@@]2(C)[C@H]([C@H](OC(=O)c3ccccc3)[C@]3(O)C[C@H](OC(=O)[C@H](O)[C@@H](NC(=O)c4ccccc4)c4ccccc4)C(C)=C1C3(C)C)[C@]1(OC(C)=O)CO[C@@H]1C[C@@H]2O [Paclitaxel, reference compound] | 0.24 | 0.41*** | 0/8 | −1.0 ± 1.2% | 1.00 | 0.48 | 0.63*** | 0/8 | 4.9 ± 0.3% | 1.02 | –
COc1cc(N2CCNCC2)ccc1Nc1ncc2c(n1)-n1ccc(C(=O)Nc3c(C)cccc3C)c1CC2 [Compound of formula (I)] | 0.45 | 0.28*** | 0/8 | −0.3 ± 1.4% | 1.01 | 0.32 | −0.02*** | 0/8 | −1.9 ± 1.4% | 0.93 | IC50 (TTK [4]): 7 nM; IC50 (PLK1 [5]): 72 nM; IC50 (TTK [6]): 0.4 nM; IC50 (PLK1 [7]): 46 nM; other kinase IC50s higher than those for TTK (other kinase): at least 10 fold; target-residency on TTK [8]: > 12 h; target-residency on PLK1 (biotinylated PLK1): a few minutes; time TTK completely occupied after last dose (tumor-derived TTK; i.v. twice-weekly, MTD dose): at least 72 h; time tumor-derived TTK fully drug-occupied after last administration (tumor-derived TTK; i.v. weekly MTD dosing): up to 6 days; GI50 [9]: 35 nM; activity against patient-derived tumor xenografts [10]: significant activity; mortality ([2]; day 21, considered non-drug-related): one mouse died; animals indicating regression (TNBC BR1282 PDX model; day 51): 3/8; change in plasma AUC of the compound of formula (I) [11]: slight nonsignificant increase

— US20250049801A1, “PHARMACEUTICAL COMBINATIONS FOR USE IN THE TREATMENT OF NEOPLASTIC DISEASES” (priority 2021, published 2025)
